Converted amounts (≈) assume the structure as drawn. Like-named read-outs stand apart in the source and are kept apart here. Residues, ends and D or L forms follow the SMILES beside them.
Assays:
S. aureus = assay: MBC and MIC susceptibility test; assay type: cell-based
[1] = Survival of non-infected catfish fingerlings injected with peptide; assay type: in vivo; conditions: 200 μg i.p. once per day for 4 days
Protocol: […] Treatment groups of the fish were then injected intraperitoneally (i.p.) with the lytic peptide LSB-37 dissolved in saline, or a saline control once per day for a period of 4 days.

[2] = Role of cytoskeletal structure in susceptibility to lysis, FDD cell viability; conditions: donkey, primary fetal donkey dermal cells (FDD), % Viability of Treated DD Cells, 100 μM peptide 15 minutes
Enterococcus-2 = assay: MIC/MBC, fresh isolates; assay type: cell-based; conditions: fresh isolate Enterococcus-2
Description: (§1) The procedure of example 2 was followed using a variety of freshly isolated bacterial samples.

Eschera Coli = assay: MIC/MBC, fresh isolates; assay type: cell-based; conditions: fresh isolate Eschera Coli
Description: as §1

Pseudomonas aeruginosa-1 = assay: MIC/MBC, fresh isolates; assay type: cell-based; conditions: fresh isolate Pseudomonas aeruginosa-1
Description: as §1

Staph aureus = assay: MIC/MBC, fresh isolates; assay type: cell-based; conditions: fresh isolate Staph aureus
Description: as §1

Enterobacteria Cloacae = assay: MIC/MBC, fresh isolates; assay type: cell-based; conditions: fresh isolate Enterobacteria Cloacae
Description: as §1

Morganella morganil = assay: MIC/MBC, fresh isolates; assay type: cell-based; conditions: fresh isolate Morganella morganil
Description: as §1

Staph Coag neg = assay: MIC/MBC, fresh isolates; assay type: cell-based; conditions: fresh isolate Staph Coag neg
Description: as §1

Serratia Marcescens = assay: MIC/MBC, fresh isolates; assay type: cell-based; conditions: fresh isolate Serratia Marcescens
Description: as §1

Klebsiella pheumoniae = assay: MIC/MBC, fresh isolates; assay type: cell-based; conditions: fresh isolate Klebsiella pheumoniae
Description: as §1

Acinetobacter Cal Anit = assay: MIC/MBC, fresh isolates; assay type: cell-based; conditions: fresh isolate Acinetobacter Cal Anit
Description: as §1

Klebsiella pheumoniae-2 = assay: MIC/MBC, fresh isolates; assay type: cell-based; conditions: fresh isolate Klebsiella pheumoniae-2
Description: as §1

Enterococcus-1 = assay: MIC/MBC, fresh isolates; assay type: cell-based; conditions: fresh isolate Enterococcus-1
Description: as §1

Citrobacter Diversus = assay: MIC/MBC, fresh isolates; assay type: cell-based; conditions: fresh isolate Citrobacter Diversus
Description: as §1

Citrobacter Freundii = assay: MIC/MBC, fresh isolates; assay type: cell-based; conditions: fresh isolate Citrobacter Freundii
Description: as §1

Enterococcus-3 = assay: MIC/MBC, fresh isolates; assay type: cell-based; conditions: fresh isolate Enterococcus-3
Description: as §1

Pseudomonas aeruginosa-2 = assay: MIC/MBC, fresh isolates; assay type: cell-based; conditions: fresh isolate Pseudomonas aeruginosa-2
Description: as §1

Pseudomonas aeruginosa-3 = assay: MIC/MBC, fresh isolates; assay type: cell-based; conditions: fresh isolate Pseudomonas aeruginosa-3
Description: as §1

E. coli = assay: MBC and MIC susceptibility test; assay type: cell-based
B-16 myeloma cells = assay: B-16 cell viability, trypan blue exclusion; assay type: cell-based; conditions: 100 μM peptide, one hour
Protocol: (§2) B-16 myeloma cells and normal 3T3 […] fibroblasts were either permitted to attach to the test plate, or treated with trypsin to free the cells from the plastic dish prior to treatment. Cells were then treated with 100 μM lytic peptide for one hour as described above, and cell viability was then determined by trypan blue exclusion.

P. aeruginosa = assay: MBC and MIC susceptibility test; assay type: cell-based
[3] = 3T3 fibroblast viability, trypan blue exclusion; assay type: cell-based; conditions: human, 100 μM peptide, one hour, read-out: % Cell Viability
Protocol: as §2

For `CC[C@H](C)[C@H](NC(=O)CNC(=O)[C@H](CC(N)=O)NC(=O)[C@H](CCCNC(=N)N)NC(=O)[C@@H](NC(=O)[C@H](CC(N)=O)NC(=O)[C@H](CCCNC(=N)N)NC(=O)CNC(=O)[C@@H](NC(=O)[C@H](CCCCN)NC(=O)[C@H](CCC(=O)O)NC(=O)[C@@H](NC(=O)[C@H](CCCCN)NC(=O)[C@H](CCCCN)NC(=O)[C@H](Cc1ccccc1)NC(=O)[C@@H](NC(=O)[C@H](CCCCN)NC(=O)[C@H](Cc1c[nH]c2ccccc12)NC(=O)[C@H](CCCCN)NC(=O)[C@@H]1CCCN1C(=O)[C@@H](N)CC(C)C)C(C)C)[C@@H](C)CC)C(C)C)[C@@H](C)CC)C(=O)N[C@H](C(=O)N[C@@H](CCCCN)C(=O)N[C@@H](C)C(=O)NCC(=O)N1CCC[C@H]1C(=O)N[C@@H](C)C(=O)N[C@H](C(=O)N[C@@H](C)C(=O)N[C@H](C(=O)N[C@@H](CC(C)C)C(=O)NCC(=O)N[C@@H](CCC(=O)O)C(=O)N[C@@H](C)C(=O)N[C@@H](CCCCN)C(=O)N[C@@H](C)C(=O)N[C@@H](CC(C)C)C(=O)NCC(N)=O)C(C)C)[C@@H](C)CC)C(C)C` [LSB-37] (H-LPKWKVFKKIEKVGRNIRNGIVKAGPAIAVLGEAKALG-NH2), the “antibacterial result of treatment (Table I; MBC)” value (from here on “antibacterial result of treatment”) (S. aureus; S. auerus (+)) was 64 µM, the MBC (S. aureus; Table III, S. aureus (+)) was 64 µM (≈ 260 µg/mL) and the “% Survival” value [1] was 100%. It also gave a viability at 15 minutes, 100 μM ([2]; Cold-treated (4° C.)) of 70%, a viability at 15 minutes, 100 μM ([2]; Warm-treated (37° C.)) of 96% and a viability at 15 minutes, 100 μM ([2]; with colchicine 0.1 μg/ml (cytoskeletal inhibitor), Colchicine-treated (0.1 μg/ml)) of 40%. The viability at 15 minutes, 100 μM ([2]; with cytochalasin D 5 μg/ml (cytoskeletal inhibitor), Cytochalasin D-treated (5 μg/ml)) was 32%, the MIC (Enterococcus-2) was 32 µM (≈ 130 µg/mL) and the MBC (Eschera Coli) was 4 µM (≈ 16.3 µg/mL). For the same compound, the MIC (Eschera Coli) was 1 µM (≈ 4.07 µg/mL), the MBC (Pseudomonas aeruginosa-1) was 16 µM (≈ 65.1 µg/mL) and the MIC (Pseudomonas aeruginosa-1) was 8 µM (≈ 32.6 µg/mL). For the same compound, the MIC (Staph aureus) was 32 µM (≈ 130 µg/mL), the MBC (Enterobacteria Cloacae) was 8 µM (≈ 32.6 µg/mL) and the MIC (Enterobacteria Cloacae) was 2 µM (≈ 8.14 µg/mL). For the same compound, the MIC (Morganella morganil) was 32 µM (≈ 130 µg/mL), the MIC (Staph Coag neg) was 32 µM (≈ 130 µg/mL) and the MIC (Serratia Marcescens) was 32 µM (≈ 130 µg/mL). The MBC (Klebsiella pheumoniae) was 8 µM (≈ 32.6 µg/mL), the MIC (Klebsiella pheumoniae) was 2 µM (≈ 8.14 µg/mL) and the MBC (Acinetobacter Cal Anit) was 1 µM (≈ 4.07 µg/mL). It also gave an MIC (Acinetobacter Cal Anit) of 0.5 µM (≈ 2.04 µg/mL), an MBC (Klebsiella pheumoniae-2) of 8 µM (≈ 32.6 µg/mL) and an MIC (Klebsiella pheumoniae-2) of 4 µM (≈ 16.3 µg/mL). It also gave an MBC (Enterococcus-1) of 32 µM (≈ 130 µg/mL), an MIC (Enterococcus-1) of 8 µM (≈ 32.6 µg/mL) and an MBC (Citrobacter Diversus) of 4 µM (≈ 16.3 µg/mL). It also gave an MIC (Citrobacter Diversus) of 1 µM (≈ 4.07 µg/mL), an MBC (Citrobacter Freundii) of 4 µM (≈ 16.3 µg/mL) and an MIC (Citrobacter Freundii) of 1 µM (≈ 4.07 µg/mL). It also gave an MIC (Enterococcus-3) of 32 µM (≈ 130 µg/mL), an MBC (Pseudomonas aeruginosa-2) of 16 µM (≈ 65.1 µg/mL) and an MIC (Pseudomonas aeruginosa-2) of 4 µM (≈ 16.3 µg/mL). For the same compound, the MBC (Pseudomonas aeruginosa-3) was 16 µM (≈ 65.1 µg/mL), the MIC (Pseudomonas aeruginosa-3) was 8 µM (≈ 32.6 µg/mL) and the “antibacterial result of treatment” value (E. coli) was 16 µM. For the same compound, the MBC (E. coli; Table III) was 2.0 µM (≈ 8.14 µg/mL), the “% Cell Viability” value (B-16 myeloma cells; B-16 Monolayer) was 78% and the “% Cell Viability” value (B-16 myeloma cells; B-16 Suspension (trypsinized)) was 22%. The “antibacterial result of treatment” value (P. aeruginosa; P. aeruginosa (−)) was 8 µM, the MBC (P. aeruginosa; Table III, P. aeuriginosa (−)) was 3.6 µM (≈ 14.7 µg/mL) and the viability at 1 h, 100 μM ([3]; normal 3T3 human fibroblasts, 3T3 Suspension (trypsinized)) was 12%. For the same compound, the viability at 1 h, 100 μM ([3]; 3T3 Monolayer) was 94%.

— patent US20020025918A1, “Methods of using helical peptides in plants” (priority 1987, published 2002)
